# In US11746087B1, “C4-carboxylic acid-substituted tryptamine derivatives and methods of using” (priority 2022, dated 2023):
# Several values for one entry are separate records, joined by “and”; a condition that tells them apart may be missing. Identical values can stand only once. Like-named read-outs stand apart in the source and are kept apart here.
# Columns and labels:
# MAO-A = biological target: T1, MAO-A (Homo sapiens, UniProt P21397); experiment: MAO-A enzyme assay (kynuramine); format: biochemical
# T1 construct: purchased Sigma
# T1 sequence (P21397 1-527): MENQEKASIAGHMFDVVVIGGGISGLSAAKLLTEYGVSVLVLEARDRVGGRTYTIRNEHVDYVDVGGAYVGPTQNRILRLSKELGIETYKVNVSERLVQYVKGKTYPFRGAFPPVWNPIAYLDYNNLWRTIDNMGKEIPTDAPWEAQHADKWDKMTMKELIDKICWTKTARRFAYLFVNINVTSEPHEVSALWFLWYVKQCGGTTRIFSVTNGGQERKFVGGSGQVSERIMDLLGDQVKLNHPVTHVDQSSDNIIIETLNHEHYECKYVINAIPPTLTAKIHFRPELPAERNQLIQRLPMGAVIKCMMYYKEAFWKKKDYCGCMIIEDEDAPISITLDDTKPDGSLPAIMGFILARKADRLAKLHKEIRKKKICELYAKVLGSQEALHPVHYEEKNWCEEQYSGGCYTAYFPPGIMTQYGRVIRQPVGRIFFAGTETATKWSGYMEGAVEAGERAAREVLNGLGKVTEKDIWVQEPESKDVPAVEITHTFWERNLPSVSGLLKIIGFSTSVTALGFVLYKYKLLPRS
# [1] = Mouse PK study (IV and PO), plasma parent compound and psilocin by LC-MS/MS; format: in vivo; conditions: for Plasma concentration of psilocin: BLQ = below 0.5 ng/mL; for F: C(XX); for concentration at 5 min / concentration at 0.25 h / concentration at 0.5 h / concentration at 1 h / concentration at 2 h / concentration at 4 h: intravenous, read-out: Plasma concentration of C(XX)
# From the text: Briefly, the procedure was as follows. […] 19, 2022.
# [2] = 10 mg/kg oral C(XX), individual animals
# [3] = C(XX) in plasma, 1 mg/kg i.v. C(XX), Mean ± SD
# [4] = C(XX) in plasma, 1 mg/kg i.v. C(XX), per animal, 1 mg/kg
# [5] = C(XX) in plasma, 1 mg/kg oral C(XX), per animal, 1 mg/kg
# [6] = C(XX) in plasma, 3 mg/kg oral C(XX), Mean ± SD
# [7] = C(XX) in plasma, 3 mg/kg oral C(XX), per animal, 3 mg/kg
# [8] = male, C57Bl/6, mouse, plasma, 1 mg/kg, 1 mg/kg i.v. C(XX), Mean ± SD
# [9] = male, C57Bl/6, mouse, plasma, 1 mg/kg, 1 mg/kg i.v. C(XX), per animal, BLQ <0.25 ng/mL
smiles,measurement,setting,value
CN(C)CCc1c[nH]c2cccc(OC(=O)c3cccc4c3OCCO4)c12 [C(XX)],IC50,MAO-A,> 100 µM
same,Plasma concentration of C(XX),"[1]; 1 mg/kg i.v. C(XX), 6 h, per animal, BLQ <0.25 ng/mL",BLQ
same,Plasma concentration of psilocin,"[1]; 1 mg/kg i.v. C(XX), 8 h, individual animals",BLQ
same,Plasma concentration of C(XX),"[1]; 1 mg/kg i.v. C(XX), 8 h, per animal, BLQ <0.25 ng/mL",BLQ and No (2×)
same,AUC0-tlast/Dose of C(XX) in plasma,"[1]; 1 mg/kg i.v. C(XX), mean ± SD",52.8 ± 8.30 kg·ng·h/mL/mg
same,Plasma concentration of C(XX),"[1]; 1 mg/kg oral C(XX), 2 h, per animal, BLQ <0.25 ng/mL",BLQ
same,Plasma concentration of C(XX),"[1]; 1 mg/kg oral C(XX), 4 h, per animal, BLQ <0.25 ng/mL",BLQ
same,Plasma concentration of C(XX),"[1]; 1 mg/kg oral C(XX), 6 h, per animal, BLQ <0.25 ng/mL",No Peak (2×) and BLQ
same,Plasma concentration of C(XX),"[1]; 1 mg/kg oral C(XX), 8 h, per animal, BLQ <0.25 ng/mL",No Peak (2×) and BLQ
same,Plasma concentration of psilocin,"[1]; 1 mg/kg oral C(XX), 24 h, individual animals",BLQ
same,Plasma concentration of C(XX),"[1]; 1 mg/kg oral C(XX), 24 h, per animal, BLQ <0.25 ng/mL",No Peak
same,Cmax/Dose of C(XX) in plasma,"[1]; 1 mg/kg p.o. C(XX), mean ± SD",0.620 kg·ng/mL/mg
same,Plasma concentration of C(XX),"[1]; 3 mg/kg oral C(XX), 4 h, per animal, BLQ <0.25 ng/mL",No Peak (2×) and BLQ
same,Plasma concentration of C(XX),"[1]; 3 mg/kg oral C(XX), 6 h, per animal, BLQ <0.25 ng/mL",No Peak and BLQ (2×)
same,Plasma concentration of C(XX),"[1]; 3 mg/kg oral C(XX), 8 h, per animal, BLQ <0.25 ng/mL",No Peak and BLQ (2×)
same,Plasma concentration of psilocin,"[1]; 3 mg/kg oral C(XX), 24 h, individual animals",BLQ
same,Plasma concentration of C(XX),"[1]; 3 mg/kg oral C(XX), 24 h, per animal, BLQ <0.25 ng/mL",No Peak
same,AUC0-tlast/Dose of C(XX) in plasma,"[1]; 3 mg/kg p.o. C(XX), mean ± SD",0.458 kg·ng·h/mL/mg
same,Cmax/Dose of C(XX) in plasma,"[1]; 3 mg/kg p.o. C(XX), mean ± SD",0.571 kg·ng/mL/mg
same,F(%) of C(XX),"[1]; 3 mg/kg p.o. C(XX), mean ± SD",0.953%
same,Plasma concentration of C(XX),"[1]; 10 mg/kg oral C(XX), 4 h, per animal, BLQ <0.25 ng/mL",BLQ
same,Plasma concentration of C(XX),"[1]; 10 mg/kg oral C(XX), 6 h, per animal, BLQ <0.25 ng/mL",BLQ
same,Plasma concentration of C(XX),"[1]; 10 mg/kg oral C(XX), 8 h, per animal, BLQ <0.25 ng/mL",BLQ
same,Plasma concentration of psilocin,"[1]; 10 mg/kg oral C(XX), 24 h, individual animals",BLQ
same,Plasma concentration of C(XX),"[1]; 10 mg/kg oral C(XX), 24 h, per animal, BLQ <0.25 ng/mL",No Peak
same,AUC0-tlast/Dose of C(XX) in plasma,[1]; [2],0.565 kg·ng·h/mL/mg and 0.499 kg·ng·h/mL/mg and 0.916 kg·ng·h/mL/mg
same,Cmax of C(XX) in plasma,[1]; [2],2.99 ng/mL and 9.12 ng/mL and 10.3 ng/mL
same,Cmax/Dose of C(XX) in plasma,[1]; [2],0.299 kg·ng/mL/mg and 0.912 kg·ng/mL/mg and 1.03 kg·ng/mL/mg
same,MRT0-inf of C(XX) in plasma,[1]; [2],48 min and 214 min
same,F(%) of C(XX),"[1]; 10 mg/kg oral C(XX), individual animals, AUC0-tlast used, might be under-estimated",1.07% and 0.941% and 1.73%
same,Apparent t1/2 of C(XX) in plasma,"[1]; 10 mg/kg oral C(XX), individual animals, M60 estimate may not be accurate",32 min and 340 min
same,AUC0-tlast/Dose of C(XX) in plasma,"[1]; 10 mg/kg oral C(XX), mean ± SD",0.660 ± 0.224 kg·ng·h/mL/mg
same,Cmax/Dose of C(XX) in plasma,"[1]; 10 mg/kg oral C(XX), mean ± SD",0.747 ± 0.392 kg·ng/mL/mg
same,F(%) of C(XX),"[1]; 10 mg/kg oral C(XX), mean ± SD, AUC0-tlast used",1.24 ± 0.423%
same,AUC0-inf/Dose,[1]; [3],53.0 ± 8.26 kg·ng·h/mL/mg
same,AUC0-tlast/Dose,[1]; [3],52.8 ± 8.30 kg·ng·h/mL/mg
same,AUC0-inf/Dose,[1]; [4],48.3 kg·ng·h/mL/mg and 62.5 kg·ng·h/mL/mg and 48.1 kg·ng·h/mL/mg
same,AUC0-tlast,[1]; [4],48.0 ng·h/mL
same,AUC0-tlast/Dose,[1]; [4],48.1 kg·ng·h/mL/mg and 62.4 kg·ng·h/mL/mg and 48.0 kg·ng·h/mL/mg
same,AUC(0-inf),[1]; [4],48.1 ng·h/mL
same,Apparent t1/2,[1]; [4],32.2 min
same,C0,[1]; [4],139 ng/mL
same,CL,[1]; [4],346.28 mL/min/kg
same,Vss,[1]; [4],8.913 L/kg
same,Cmax/Dose,"[1]; C(XX) in plasma, 1 mg/kg oral C(XX), Mean ± SD",0.620 ± 0.0996 kg·ng/mL/mg
same,Cmax/Dose,[1]; [5],0.702 kg·ng/mL/mg and 0.509 kg·ng/mL/mg and 0.648 kg·ng/mL/mg
same,Tmax,[1]; [5],30 min
same,AUC0-tlast/Dose,[1]; [6],0.458 ± 0.0457 kg·ng·h/mL/mg
same,Cmax/Dose,[1]; [6],0.571 ± 0.0734 kg·ng/mL/mg
same,Tmax,"[1]; C(XX) in plasma, 3 mg/kg oral C(XX), per animal",15 min
same,AUC0-inf/Dose,[1]; [7],0.510 kg·ng·h/mL/mg
same,AUC0-tlast,[1]; [7],1.42 ng·h/mL
same,AUC0-tlast/Dose,[1]; [7],0.406 kg·ng·h/mL/mg and 0.494 kg·ng·h/mL/mg and 0.474 kg·ng·h/mL/mg
same,Cmax/Dose,[1]; [7],0.497 kg·ng/mL/mg and 0.573 kg·ng/mL/mg and 0.643 kg·ng/mL/mg
same,MRT0-inf,[1]; [7],49.4 min
same,F,"[1]; 3 mg/kg oral C(XX), Mean ± SD",0.953 ± 0.132%
same,F,"[1]; 3 mg/kg oral C(XX), per animal, 3 mg/kg",0.816% and 1.08%
same,concentration at 5 min,[1]; [8],122 ± 26.1 ng/mL
same,concentration at 5 min,[1]; [9],109 ng/mL
same,concentration at 0.25 h,[1]; [8],70.5 ± 12.7 ng/mL
same,concentration at 0.25 h,[1]; [9],66.5 ng/mL
same,concentration at 0.5 h,[1]; [8],32 ± 5.9 ng/mL
same,concentration at 0.5 h,[1]; [9],26.1 ng/mL
same,concentration at 1 h,[1]; [8],8.43 ± 0.438 ng/mL
same,concentration at 1 h,[1]; [9],8.93 ng/mL
same,concentration at 2 h,"[1]; male, C57Bl/6, mouse, plasma, 1 mg/kg, 1 mg/kg i.v. C(XX), 2 h, Mean ± SD",1.05 ± 0.0871 ng/mL
same,concentration at 2 h,"[1]; male, C57Bl/6, mouse, plasma, 1 mg/kg, 1 mg/kg i.v. C(XX), 2 h, per animal, BLQ <0.25 ng/mL",0.968 ng/mL
same,concentration at 4 h,"[1]; male, C57Bl/6, mouse, plasma, 1 mg/kg, 1 mg/kg i.v. C(XX), 4 h, Mean ± SD",0.181 ± 0.0663 ng/mL
same,concentration at 4 h,"[1]; male, C57Bl/6, mouse, plasma, 1 mg/kg, 1 mg/kg i.v. C(XX), 4 h, per animal, BLQ <0.25 ng/mL",0.257 ng/mL
same,half-life,"[1]; male, C57Bl/6, mouse, plasma, iv, 1 mg/kg, 1 mg/kg i.v. C(XX), mean ± SD, read-out: Apparent t1/2 of C(XX) in plasma (converted)",33.8 min
